Test system in the first series: not given
Experiment: not given
Settings: not given
Usually melting point stands for the temperature of the solid-liquid transition. `CCN(C(=S)n1cc(F)c(N)nc1=O)c1ccccc1` [Compound 37]: the melting point was 223 to 226 °C.

In turn, `CCNC(=O)n1cc(F)c(NC(C)=O)nc1=O` [Compound 38, 4-acetamido-N-ethyl-5-fluoro-2-oxopyrimidine-1(2H)-carboxamide] came in with a melting point of 233 to 235 °C.

For the compound `CCCNC(=O)n1cc(F)c(NC(C)=O)nc1=O` [Compound 39], the melting point was in the range of 233 to 235 °C.

`CCCNC(=O)n1cc(F)c(NC(=O)c2ccccc2)nc1=O` [Compound 40] yielded a melting point of 258 to 260 °C.

For the compound `CCCNC(=O)n1cc(F)c(NC(=O)C(C)C)nc1=O` [Compound 41], the melting point was 226 to 228 °C.

For the compound `CCCNC(=O)n1cc(F)c(NC(=O)c2ccccc2Cl)nc1=O` [Compound 42], the melting point was in the range of 239 to 241 °C.

`CCCNC(=O)n1cc(F)c(NC(=O)Cc2ccc(OC)cc2)nc1=O` [Compound 43] came in with a melting point of 227 to 229 °C.

Regarding `CCNC(=O)n1cc(F)c(NC(=O)c2ccccc2)nc1=O` [Compound 44], the melting point is 249 to 251 °C.

In turn, `CCNC(=O)n1cc(F)c(NC(=O)C(C)C)nc1=O` [Compound 45] displayed a melting point of 226 to 228 °C.

Compound `CCNC(=O)n1cc(F)c(NC(=O)c2ccccc2Cl)nc1=O` [Compound 46] displayed a melting point of 239 to 241 °C.

Compound `CC(=O)Nc1nc(=O)n(C(=O)NCc2ccc(Cl)cc2)cc1F` [Compound 47] returned a melting point of 170 to 172 °C.

In turn, `O=C(Nc1nc(=O)n(C(=O)NCc2ccc(Cl)cc2)cc1F)c1ccccc1` [Compound 48] yielded a melting point of 210 to 212 °C.

On to `CCNC(=O)n1cc(F)c(NC(=O)NCc2ccccc2OC)nc1=O` [Compound 49, N-ethyl-5-fluoro-4-(3-(2-methoxybenzyl)ureido)-2-oxopyrimidine-1(2H)-carboxamide], for which the melting point was 248 to 250 °C.

As for `COc1ccccc1CNC(=O)Nc1nc(=O)n(C(=O)NC(C)C)cc1F` [Compound 50], the melting point fell in the range of 251 to 253 °C.

Consider `CCCNC(=O)n1cc(F)c(NC(=O)NCc2ccccc2OC)nc1=O` [Compound 51], for which the melting point fell in the range of 248 to 250 °C.

`CCCCCNC(=O)n1cc(F)c(NC(=O)NCc2ccccc2OC)nc1=O` [Compound 52] had a melting point of 248 to 250 °C.

`COc1ccccc1CNC(=O)Nc1nc(=O)n(C(=O)NCc2ccccc2F)cc1F` [Compound 53] displayed a melting point of 229 to 231 °C.

In a further series the test system is Mycosphaerella graminicola; Anamorph: Septoria tritici; Bayer Code SEPTTR. In words: Evaluation of fungicidal activity: leaf blotch of wheat (SEPTTR), wheat plants variety Yuma. Type of series: in vivo. To be noted: Zymoseptoria tritici, 24 h; One-Day Protectant (1DP), 100 ppm, wheat plants, percent control vs untreated inoculated plants; read-out: SEPTTR 100 PPM 1DP (% Disease Control rating). The protocol:
Evaluation of Fungicidal Activity: Leaf Blotch of Wheat (Mycosphaerella graminicola; Anamorph: Septoria tritici; Bayer Code […]) Wheat plants (variety Yuma) were grown from seed in a greenhouse in 50% mineral soil/50% soil-less Metro mix until the first leaf was fully emerged, with 7-10 seedlings per pot. These plants were inoculated with an aqueous spore suspension of Septoria tritici either prior to or after fungicide treatments. After inoculation the plants were kept in 100% relative humidity (one day in a dark dew chamber followed by two to three days in a lighted dew chamber) to permit spores to germinate and infect the leaf. The plants were then transferred to a greenhouse for disease to develop. The following table presents the activity of typical compounds of the present disclosure when evaluated in these experiments. The effectiveness of the test compounds in controlling disease was determined by assessing the severity of disease on treated plants, then converting the severity to percent control based on the level of disease on untreated, inoculated plants. • In each case of Table II the rating scale is as follows: […]
With `CCN(C(=S)n1cc(F)c(N)nc1=O)c1ccccc1` [Compound 37], the pest or weed control at 100 ppm fell in the range of 76 to 100%.

On to `CCNC(=O)n1cc(F)c(NC(C)=O)nc1=O` [Compound 38, 4-acetamido-N-ethyl-5-fluoro-2-oxopyrimidine-1(2H)-carboxamide], for which the pest or weed control at 100 ppm lay in the range of 76 to 100%.

With `CCCNC(=O)n1cc(F)c(NC(C)=O)nc1=O` [Compound 39], the pest or weed control at 100 ppm was in the range of 76 to 100%.

As for `CCCNC(=O)n1cc(F)c(NC(=O)c2ccccc2)nc1=O` [Compound 40], the pest or weed control at 100 ppm lay in the range of 76 to 100%.

Take `CCCNC(=O)n1cc(F)c(NC(=O)C(C)C)nc1=O` [Compound 41]: the pest or weed control at 100 ppm fell in the range of 76 to 100%.

With `CCCNC(=O)n1cc(F)c(NC(=O)c2ccccc2Cl)nc1=O` [Compound 42], the pest or weed control at 100 ppm lay in the range of 26 to 50%.

In the case of `CCCNC(=O)n1cc(F)c(NC(=O)Cc2ccc(OC)cc2)nc1=O` [Compound 43], the pest or weed control at 100 ppm was in the range of 76 to 100%.

Consider `CCNC(=O)n1cc(F)c(NC(=O)c2ccccc2)nc1=O` [Compound 44], for which the pest or weed control at 100 ppm lay in the range of 76 to 100%.

For the compound `CCNC(=O)n1cc(F)c(NC(=O)C(C)C)nc1=O` [Compound 45], the pest or weed control at 100 ppm was in the range of 76 to 100%.

In the case of `CCNC(=O)n1cc(F)c(NC(=O)c2ccccc2Cl)nc1=O` [Compound 46], the pest or weed control at 100 ppm fell in the range of 76 to 100%.

As to `CC(=O)Nc1nc(=O)n(C(=O)NCc2ccc(Cl)cc2)cc1F` [Compound 47], the pest or weed control at 100 ppm is 76 to 100%.

As to `O=C(Nc1nc(=O)n(C(=O)NCc2ccc(Cl)cc2)cc1F)c1ccccc1` [Compound 48], the pest or weed control at 100 ppm fell in the range of 76 to 100%.

For the compound `CCNC(=O)n1cc(F)c(NC(=O)NCc2ccccc2OC)nc1=O` [Compound 49, N-ethyl-5-fluoro-4-(3-(2-methoxybenzyl)ureido)-2-oxopyrimidine-1(2H)-carboxamide], the pest or weed control at 100 ppm fell in the range of 0 to 25%.

Regarding `COc1ccccc1CNC(=O)Nc1nc(=O)n(C(=O)NC(C)C)cc1F` [Compound 50], the pest or weed control at 100 ppm fell in the range of 0 to 25%.

On to `CCCNC(=O)n1cc(F)c(NC(=O)NCc2ccccc2OC)nc1=O` [Compound 51], for which the pest or weed control at 100 ppm fell in the range of 0 to 25%.

Turning to `CCCCCNC(=O)n1cc(F)c(NC(=O)NCc2ccccc2OC)nc1=O` [Compound 52], the pest or weed control at 100 ppm was 0 to 25%.

For `COc1ccccc1CNC(=O)Nc1nc(=O)n(C(=O)NCc2ccccc2F)cc1F` [Compound 53], the pest or weed control at 100 ppm was 0 to 25%.

Still in this series, the particulars now being: Zymoseptoria tritici, 72 h; Three-Day Curative (3DC), 100 ppm, wheat plants, percent control vs untreated inoculated plants; read-out: SEPTTR 100 PPM 3DC (% Disease Control rating).
For the compound `CCN(C(=S)n1cc(F)c(N)nc1=O)c1ccccc1` [Compound 37], the pest or weed control at 100 ppm lay within 76 to 100%.

As to `CCNC(=O)n1cc(F)c(NC(C)=O)nc1=O` [Compound 38, 4-acetamido-N-ethyl-5-fluoro-2-oxopyrimidine-1(2H)-carboxamide], the pest or weed control at 100 ppm is 76 to 100%.

On to `CCCNC(=O)n1cc(F)c(NC(C)=O)nc1=O` [Compound 39], for which the pest or weed control at 100 ppm was in the range of 76 to 100%.

Consider `CCCNC(=O)n1cc(F)c(NC(=O)c2ccccc2)nc1=O` [Compound 40], for which the pest or weed control at 100 ppm was in the range of 76 to 100%.

Regarding `CCCNC(=O)n1cc(F)c(NC(=O)C(C)C)nc1=O` [Compound 41], the pest or weed control at 100 ppm was in the range of 76 to 100%.

`CCCNC(=O)n1cc(F)c(NC(=O)c2ccccc2Cl)nc1=O` [Compound 42]: the pest or weed control at 100 ppm lay in the range of 76 to 100%.

For `CCCNC(=O)n1cc(F)c(NC(=O)Cc2ccc(OC)cc2)nc1=O` [Compound 43], the pest or weed control at 100 ppm is 76 to 100%.

Take `CCNC(=O)n1cc(F)c(NC(=O)c2ccccc2)nc1=O` [Compound 44]: the pest or weed control at 100 ppm lay in the range of 76 to 100%.

Regarding `CCNC(=O)n1cc(F)c(NC(=O)C(C)C)nc1=O` [Compound 45], the pest or weed control at 100 ppm was 76 to 100%.

For the compound `CCNC(=O)n1cc(F)c(NC(=O)c2ccccc2Cl)nc1=O` [Compound 46], the pest or weed control at 100 ppm was in the range of 51 to 75%.

As to `CC(=O)Nc1nc(=O)n(C(=O)NCc2ccc(Cl)cc2)cc1F` [Compound 47], the pest or weed control at 100 ppm lay within 76 to 100%.

As for `O=C(Nc1nc(=O)n(C(=O)NCc2ccc(Cl)cc2)cc1F)c1ccccc1` [Compound 48], the pest or weed control at 100 ppm lay within 76 to 100%.

`CCNC(=O)n1cc(F)c(NC(=O)NCc2ccccc2OC)nc1=O` [Compound 49, N-ethyl-5-fluoro-4-(3-(2-methoxybenzyl)ureido)-2-oxopyrimidine-1(2H)-carboxamide]: the pest or weed control at 100 ppm lay within 0 to 25%.

For the compound `COc1ccccc1CNC(=O)Nc1nc(=O)n(C(=O)NC(C)C)cc1F` [Compound 50], the pest or weed control at 100 ppm was 0 to 25%.

As to `CCCNC(=O)n1cc(F)c(NC(=O)NCc2ccccc2OC)nc1=O` [Compound 51], the pest or weed control at 100 ppm fell in the range of 0 to 25%.

Consider `CCCCCNC(=O)n1cc(F)c(NC(=O)NCc2ccccc2OC)nc1=O` [Compound 52], for which the pest or weed control at 100 ppm lay in the range of 0 to 25%.

With `COc1ccccc1CNC(=O)Nc1nc(=O)n(C(=O)NCc2ccccc2F)cc1F` [Compound 53], the pest or weed control at 100 ppm was in the range of 0 to 25%.

These data come from patent publication US9000002B2, “N1-substituted-5-fluoro-2-oxopyrimidinone-1(2H)-carboxamide derivatives” (Dow Agrosciences LLC, priority 2009, dated 2015).
